# From US7186803B2, “Human vanilloid receptor VR3 protein” (Ortho-McNeil Pharmaceutical, Inc., priority 2000, dated 2007)
# Entries after “also recorded” stand apart in the source; their conditions may differ.
# Tests used:
# human VR3 A−B− = target: T1, human VR3 A−B− (Homo sapiens, UniProt Q9HBA0, DEL384-443/F526I); test: Two-electrode voltage clamp of Xenopus oocytes injected with VR3 A−B− cRNA, challenged with ligands; assay type: cell-based; conditions: VR3 A−B− 1.5 ng injected per oocyte
# T1 construct: expressed in transfected cells; host or cells: Xenopus laevis oocytes injected with in vitro transcribed cRNA
# Description: When approximately 50% of the follicular layers were removed, Stage V and VI oocytes were selected and rinsed in media consisting of 75% OR-2 and 25% ND-96. The ND-96 contained: 100 mM NaCl, 2 mM KCl, 1 mM MgCl2, 1.8 mM CaCl2, 5 mM HEPES, 2.5 mM Na pyruvate, gentamicin (50 ug/ml), adjusted to pH 7.0 with NaOH.
# (§1) Oocytes were injected with 50 nl of the human VR3 receptor RNA (0.3–5 ng) with or without co-injection of VR1 (2–3 ng). Control oocytes were injected with 50 nl of water. Oocytes were incubated for 1–13 days in ND-96 before analysis for expression of the human VR3. Incubations and collagenase digestion were carried out at room temperature. Injected oocytes were maintained in 48 well cell culture clusters (Costar; Cambridge, Mass.) at 18° C. […] The microelectrodes were filled with 3 M KCl, which had resistances of 1 and 2 MΩ. Cells were continuously perfused with ND96 at ˜10 ml/min at room temperature unless indicated. Membrane voltage was clamped at −70 mV unless indicated.
# capsaicin binding site = capsaicin binding site (Rattus norvegicus, UniProt O35433); conditions: cited from earlier work
# human VR3 A+B+ = target: T2, human VR3 A+B+ (Homo sapiens, UniProt Q9HBA0); test: Two-electrode voltage clamp of Xenopus oocytes injected with VR3 A+B+ cRNA, challenged with ligands; assay type: cell-based; set-up: key: NE: no effect; conditions: VR3 A+B+ 5 ng injected per oocyte
# T2 construct: expressed in transfected cells; host or cells: Xenopus laevis oocytes injected with in vitro transcribed cRNA
# Description: (§2) Xenopus laevis oocytes were prepared and injected using standard methods previously described and known in the art (Fraser et al., 1993). Ovarian lobes from adult female Xenopus laevis (Nasco, Fort Atkinson, Wis.) were teased apart, rinsed several times in nominally Ca-free saline containing: 82.5 mM NaCl, 2.5 mM KCl, 1 mM MgCl2, 5 mM HEPES, adjusted to pH 7.0 with NaOH (OR-2), and gently shaken in OR-2 containing 0.2% collagenase Type 1 (ICN Biomedicals, Aurora, Ohio) for 2–5 hours. When approximately 50% of the follicular layers were removed, Stage V and VI oocytes were selected and rinsed in media consisting of 75% OR-2 and 25% ND-96. The ND-96 contained: 100 mM NaCl, 2 mM KCl, 1 mM MgCl2, 1.8 mM CaCl2, 5 mM HEPES, 2.5 mM Na pyruvate, gentamicin (50 ug/ml), adjusted to pH 7.0 with NaOH. […] For in vitro transcription, pGEM HE (Liman et al., 1992) containing human VR3 was linearized with NheI and transcribed with T7 RNA polymerase (Promega) in the presence of the cap analog m7G(5′)ppp(5′)G. The synthesized cRNA was precipitated with ammonium acetate and isopropanol, and resuspended in 50 μl nuclease-free water. cRNA was quantified using formaldehyde gels (1% agarose, 1×MOPS , 3% formaldehyde) against 1,2 and 5 μl RNA markers (Gibco BRL, 0.24–9.5 Kb).
# (§3) Oocytes were injected with 50 nl of the human VR3 receptor RNA (0.3–5 ng) with or without co-injection of VR1 (2–3 ng). Control oocytes were injected with 50 nl of water. Oocytes were incubated for 1–13 days in ND-96 before analysis for expression of the human VR3. Incubations and collagenase digestion were carried out at room temperature. Injected oocytes were maintained in 48 well cell culture clusters (Costar; Cambridge, Mass.) at 18° C. Whole cell agonist-induced currents were measured 1–14 days after injection with a conventional two-electrode voltage clamp (GeneClamp500, Axon Instruments, Foster City, Calif.) using standard methods previously described and known in the art (Dascal, 1987). The microelectrodes were filled with 3 M KCl, which had resistances of 1 and 2 MΩ. Cells were continuously perfused with ND96 at ˜10 ml/min at room temperature unless indicated. Membrane voltage was clamped at −70 mV unless indicated.
# (§4) Oocytes were challenged with a variety of ligands, low pH, and depolarizing as well as hyperpolarizing voltage steps but there were no detectable differences in membrane conductance between human VR3-expressing oocytes and control oocytes [see Table 1]. However, human VR3 injected oocytes had properties that were different from controls in 4 respects. First, injection of VR3 A+B− cRNA caused oocytes to die. […] Second, all three isoforms of VR3 enhanced the heat-induced response (FIG. 10). Third, A+B− co-injection with human VR1 produced a ruthenium red sensitive perfusion-induced current (Iperfusion) (FIG. 11).
# human VR3 A+B− = target: T3, human VR3 A+B− (Homo sapiens, UniProt Q9HBA0, F526I); test: Two-electrode voltage clamp of Xenopus oocytes injected with VR3 A+B− cRNA, challenged with ligands; assay type: cell-based; set-up: key: NE: no effect
# T3 construct: expressed in transfected cells; host or cells: Xenopus laevis oocytes injected with in vitro transcribed cRNA
# Description: as §2, §3, §4
# VR2 = target: T4, VR2 (Rattus norvegicus, UniProt Q9WUD2); conditions: noxious temperatures (>53 deg C.), oocytes and HEK cells, cited from earlier work
# T4 construct: host or cells: oocytes and HEK cells (as reported)
# T4 sequence (Q9WUD2 1-761): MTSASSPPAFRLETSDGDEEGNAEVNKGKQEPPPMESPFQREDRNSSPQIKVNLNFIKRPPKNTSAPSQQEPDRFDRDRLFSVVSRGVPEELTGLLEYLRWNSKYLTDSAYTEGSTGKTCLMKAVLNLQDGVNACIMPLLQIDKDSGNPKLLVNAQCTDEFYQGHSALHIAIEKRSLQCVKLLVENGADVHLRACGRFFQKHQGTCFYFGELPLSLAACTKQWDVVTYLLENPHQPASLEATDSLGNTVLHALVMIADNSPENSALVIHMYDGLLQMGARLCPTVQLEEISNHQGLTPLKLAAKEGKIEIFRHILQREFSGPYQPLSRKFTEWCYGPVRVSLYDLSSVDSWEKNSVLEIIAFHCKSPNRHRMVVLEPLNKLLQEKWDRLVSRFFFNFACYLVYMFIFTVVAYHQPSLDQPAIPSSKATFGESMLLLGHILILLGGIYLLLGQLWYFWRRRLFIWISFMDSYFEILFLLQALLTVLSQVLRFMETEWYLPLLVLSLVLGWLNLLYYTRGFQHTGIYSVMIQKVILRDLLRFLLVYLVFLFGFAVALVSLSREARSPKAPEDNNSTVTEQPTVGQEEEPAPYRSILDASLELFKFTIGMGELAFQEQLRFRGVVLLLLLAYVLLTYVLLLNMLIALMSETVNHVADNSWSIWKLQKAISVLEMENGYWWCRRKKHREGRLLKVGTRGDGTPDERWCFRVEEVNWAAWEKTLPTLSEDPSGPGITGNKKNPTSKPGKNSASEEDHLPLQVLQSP
# [1] = target: T5, human VR1 together with human VR3 A+B− (Homo sapiens, UniProt Q8NER1); test: Capsaicin induced currents in oocytes expressing human VR1 with human VR3 A+B−; assay type: cell-based; conditions: 1 uM capsaicin; VR1 and VR3 A+B− cRNA at equal ratios (2.9 ng each); holding voltage +50 mV
# T5 construct: expressed in transfected cells; host or cells: Xenopus laevis oocytes co-injected with VR1 and VR3 A+B− cRNA (2.9 ng each)
# Description: as §1
# [2] = 1 uM, VR3 A+B− 3.25–4 ng injected per oocyte (also 0.4 ng)
# [3] = 10 uM, VR3 A+B− 3.25–4 ng injected per oocyte (also 0.4 ng)
# [4] = 100 uM, VR3 A+B− 3.25–4 ng injected per oocyte
# T3 sequence (Q9HBA0 whole entry F526I): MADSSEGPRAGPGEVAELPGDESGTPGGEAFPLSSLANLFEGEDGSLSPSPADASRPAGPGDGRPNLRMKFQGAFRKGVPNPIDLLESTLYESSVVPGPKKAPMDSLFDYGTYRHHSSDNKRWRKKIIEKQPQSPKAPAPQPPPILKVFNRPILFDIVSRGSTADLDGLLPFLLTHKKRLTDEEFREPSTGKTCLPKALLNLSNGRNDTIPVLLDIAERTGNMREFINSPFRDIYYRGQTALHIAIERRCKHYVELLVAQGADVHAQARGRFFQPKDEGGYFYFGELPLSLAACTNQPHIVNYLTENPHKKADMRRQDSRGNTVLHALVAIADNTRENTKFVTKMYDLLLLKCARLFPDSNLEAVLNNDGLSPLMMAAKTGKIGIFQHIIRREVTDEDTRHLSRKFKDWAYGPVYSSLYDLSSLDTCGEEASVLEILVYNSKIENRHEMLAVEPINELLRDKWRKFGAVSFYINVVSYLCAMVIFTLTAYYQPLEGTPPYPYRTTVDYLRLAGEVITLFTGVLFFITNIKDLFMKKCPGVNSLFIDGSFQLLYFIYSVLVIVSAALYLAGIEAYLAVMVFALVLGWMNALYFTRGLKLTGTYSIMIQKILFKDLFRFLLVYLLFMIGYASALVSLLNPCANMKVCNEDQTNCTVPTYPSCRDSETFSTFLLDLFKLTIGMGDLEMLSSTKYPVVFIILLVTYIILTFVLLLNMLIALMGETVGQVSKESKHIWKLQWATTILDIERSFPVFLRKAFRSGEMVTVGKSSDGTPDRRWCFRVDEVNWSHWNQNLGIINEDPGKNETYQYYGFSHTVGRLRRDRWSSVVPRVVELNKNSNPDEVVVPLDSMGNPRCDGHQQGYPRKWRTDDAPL
# T1 sequence (Q9HBA0 with tags, fused parts or gaps DEL384-443/F526I): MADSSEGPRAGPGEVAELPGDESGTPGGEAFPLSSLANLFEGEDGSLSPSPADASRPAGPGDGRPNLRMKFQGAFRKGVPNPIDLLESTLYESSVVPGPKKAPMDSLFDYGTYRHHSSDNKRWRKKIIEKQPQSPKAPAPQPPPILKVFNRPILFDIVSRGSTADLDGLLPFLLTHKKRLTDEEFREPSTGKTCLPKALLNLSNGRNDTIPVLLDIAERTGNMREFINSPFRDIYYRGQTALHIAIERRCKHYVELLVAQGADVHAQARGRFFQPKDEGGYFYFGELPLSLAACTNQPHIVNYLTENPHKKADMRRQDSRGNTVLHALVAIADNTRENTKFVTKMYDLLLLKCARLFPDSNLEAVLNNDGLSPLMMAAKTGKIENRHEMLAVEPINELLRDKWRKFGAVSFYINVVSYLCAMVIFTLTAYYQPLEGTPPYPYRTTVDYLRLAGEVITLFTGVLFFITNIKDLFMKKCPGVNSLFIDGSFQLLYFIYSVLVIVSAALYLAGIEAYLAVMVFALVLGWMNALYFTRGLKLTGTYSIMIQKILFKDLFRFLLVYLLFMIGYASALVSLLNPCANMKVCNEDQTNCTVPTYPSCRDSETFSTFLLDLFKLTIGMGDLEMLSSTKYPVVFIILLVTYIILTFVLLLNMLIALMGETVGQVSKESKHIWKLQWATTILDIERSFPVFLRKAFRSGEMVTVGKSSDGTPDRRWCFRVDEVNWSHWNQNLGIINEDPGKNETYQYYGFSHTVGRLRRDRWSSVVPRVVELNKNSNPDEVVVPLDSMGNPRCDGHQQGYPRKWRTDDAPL
# T2 sequence (Q9HBA0 with tags, fused parts or gaps): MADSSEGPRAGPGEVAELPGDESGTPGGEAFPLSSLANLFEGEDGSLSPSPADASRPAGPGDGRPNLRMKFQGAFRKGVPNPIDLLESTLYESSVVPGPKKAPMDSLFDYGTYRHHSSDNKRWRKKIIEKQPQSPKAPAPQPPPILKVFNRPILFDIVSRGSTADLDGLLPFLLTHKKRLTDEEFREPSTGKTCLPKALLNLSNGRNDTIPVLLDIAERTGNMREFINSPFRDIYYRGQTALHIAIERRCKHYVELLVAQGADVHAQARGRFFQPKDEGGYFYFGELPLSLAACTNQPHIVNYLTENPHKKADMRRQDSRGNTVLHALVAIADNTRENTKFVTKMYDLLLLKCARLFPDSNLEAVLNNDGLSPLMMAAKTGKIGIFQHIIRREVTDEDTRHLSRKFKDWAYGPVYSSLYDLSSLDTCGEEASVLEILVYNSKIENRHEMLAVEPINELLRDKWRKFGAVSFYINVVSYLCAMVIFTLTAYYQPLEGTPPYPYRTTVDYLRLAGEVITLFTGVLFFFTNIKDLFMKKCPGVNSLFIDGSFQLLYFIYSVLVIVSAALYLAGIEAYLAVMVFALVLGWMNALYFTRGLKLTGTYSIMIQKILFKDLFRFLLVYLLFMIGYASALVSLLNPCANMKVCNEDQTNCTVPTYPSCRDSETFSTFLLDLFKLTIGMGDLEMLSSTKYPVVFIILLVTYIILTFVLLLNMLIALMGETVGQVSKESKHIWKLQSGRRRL
# T5 sequence (Q8NER1 whole entry): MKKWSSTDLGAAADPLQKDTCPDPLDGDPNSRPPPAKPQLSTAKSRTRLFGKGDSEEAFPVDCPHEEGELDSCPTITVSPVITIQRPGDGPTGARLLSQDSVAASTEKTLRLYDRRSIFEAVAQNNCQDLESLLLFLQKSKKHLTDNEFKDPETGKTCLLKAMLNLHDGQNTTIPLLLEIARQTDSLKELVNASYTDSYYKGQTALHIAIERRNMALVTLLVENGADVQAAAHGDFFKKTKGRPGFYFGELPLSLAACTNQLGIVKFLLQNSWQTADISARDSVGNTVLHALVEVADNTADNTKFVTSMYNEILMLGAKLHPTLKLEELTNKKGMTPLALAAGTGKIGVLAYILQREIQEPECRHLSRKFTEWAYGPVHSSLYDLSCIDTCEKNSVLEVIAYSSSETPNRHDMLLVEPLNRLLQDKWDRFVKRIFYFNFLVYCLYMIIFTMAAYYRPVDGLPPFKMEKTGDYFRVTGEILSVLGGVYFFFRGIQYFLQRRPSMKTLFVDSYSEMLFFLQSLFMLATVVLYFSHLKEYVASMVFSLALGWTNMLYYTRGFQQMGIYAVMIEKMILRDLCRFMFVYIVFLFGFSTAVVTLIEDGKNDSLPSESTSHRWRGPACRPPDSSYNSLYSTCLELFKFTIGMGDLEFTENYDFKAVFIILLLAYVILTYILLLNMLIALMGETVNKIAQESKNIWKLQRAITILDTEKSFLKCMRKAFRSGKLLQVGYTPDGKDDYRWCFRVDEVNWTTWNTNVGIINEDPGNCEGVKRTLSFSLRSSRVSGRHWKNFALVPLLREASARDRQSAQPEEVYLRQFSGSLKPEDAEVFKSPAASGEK
# Sequence of capsaicin binding site (O35433 whole entry): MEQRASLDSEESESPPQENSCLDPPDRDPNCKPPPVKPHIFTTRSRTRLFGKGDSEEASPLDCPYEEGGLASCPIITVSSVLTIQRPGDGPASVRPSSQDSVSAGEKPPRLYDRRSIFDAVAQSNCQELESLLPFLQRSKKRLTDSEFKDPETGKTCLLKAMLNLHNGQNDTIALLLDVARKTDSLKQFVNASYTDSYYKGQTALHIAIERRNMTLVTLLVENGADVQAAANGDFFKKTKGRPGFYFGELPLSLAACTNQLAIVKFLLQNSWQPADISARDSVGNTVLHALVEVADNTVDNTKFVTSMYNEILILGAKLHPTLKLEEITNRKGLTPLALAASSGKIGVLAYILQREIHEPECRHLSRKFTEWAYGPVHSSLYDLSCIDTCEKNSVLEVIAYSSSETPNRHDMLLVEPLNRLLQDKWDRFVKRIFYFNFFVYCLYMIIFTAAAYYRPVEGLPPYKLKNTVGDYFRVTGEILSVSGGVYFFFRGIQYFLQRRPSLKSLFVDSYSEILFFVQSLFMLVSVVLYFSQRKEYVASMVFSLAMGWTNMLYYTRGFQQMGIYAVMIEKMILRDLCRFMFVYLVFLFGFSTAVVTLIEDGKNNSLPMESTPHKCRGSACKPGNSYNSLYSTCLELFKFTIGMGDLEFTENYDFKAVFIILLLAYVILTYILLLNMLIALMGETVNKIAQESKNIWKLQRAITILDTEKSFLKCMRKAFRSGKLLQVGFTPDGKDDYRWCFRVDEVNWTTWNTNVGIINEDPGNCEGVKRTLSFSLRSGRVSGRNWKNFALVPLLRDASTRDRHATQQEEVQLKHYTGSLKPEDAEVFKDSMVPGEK
structure (smiles),measurement,setting,value
"C=C(C)[C@]12C[C@@H](C)[C@@]34O[C@](Cc5ccccc5)(O[C@@H]1[C@@H]3C=C(COC(=O)Cc1ccc(O)c(OC)c1)C[C@]1(O)C(=O)C(C)=C[C@@H]41)O2 [Resiniferatoxin, resiniferatoxin]",Effect of stimulus on membrane conductance vs control oocytes,human VR3 A−B−; 1 uM,NE: n = 3
same,Binding affinity at the capsaicin binding site,capsaicin binding site,nanomolar affinity
same,Effect of stimulus on membrane conductance vs control oocytes,human VR3 A+B+; 1 uM,NE: n = 3
same,Effect of stimulus on membrane conductance vs control oocytes,human VR3 A+B−; [2],NE: n = 3 (n = 1 0.4 ng)
"Oc1cc2c(cc1O)CN(C(=S)NCCc1ccc(Cl)cc1)CCC2 [CPZ, capsazepine]",Sensitivity of the VR2 heat response to CPZ,VR2,not sensitive
N.N.N.N.N.N.N.N.N.N.N.N.N.N.[Cl-].[Cl-].[Cl-].[Cl-].[Cl-].[Cl-].[O-2].[O-2].[Ru+3].[Ru+3].[Ru+4] [ruthenium red],Block of the VR2 heat response,VR2; 10 μM ruthenium red,nearly completely blocked
COc1ccccc1O [Guiaicol],Effect of stimulus on membrane conductance vs control oocytes,human VR3 A−B−; 10 uM,NE: n = 3
same,Effect of stimulus on membrane conductance vs control oocytes,human VR3 A+B+; 10 uM,NE: n = 3
same,Effect of stimulus on membrane conductance vs control oocytes,human VR3 A+B−; [3],NE: n = 3 (n = 1 0.4 ng)
"COc1cc(CNC(=O)CCCCC=CC(C)C)ccc1O [Capsaicin, 8-methyl-N-vanillyl-6-nonenamide]",Effect of stimulus on membrane conductance vs control oocytes,human VR3 A−B−; 1 uM,NE: n = 3
same,Effect of stimulus on membrane conductance vs control oocytes,human VR3 A+B+; 1 uM,NE: n = 3
same,Effect of stimulus on membrane conductance vs control oocytes,human VR3 A+B−; [2],NE: n = 3 (n = 3 0.4 ng)
same,"Response to capsaicin when VR1 is co-expressed with VR3 A+B−, compared with VR1 alone",[1],altered the responsiveness; also recorded: diminished
CCCCC/C=C\C/C=C\C/C=C\C/C=C\CCCC(=O)O [Arachadonic acid],Effect of stimulus on membrane conductance vs control oocytes,human VR3 A−B−; 10 uM,NE: n = 3
NCCc1ccccc1 [β-phenylethylamine],Effect of stimulus on membrane conductance vs control oocytes,human VR3 A+B−; [4],NE: n = 2
O=C(O)CCCO [γ-hydroxybutyrate],Effect of stimulus on membrane conductance vs control oocytes,human VR3 A+B−; [4],NE: n = 2
C=CCc1ccc(O)c(OC)c1 [Eugenol],Effect of stimulus on membrane conductance vs control oocytes,human VR3 A−B−; 10 uM,NE: n = 3
same,Effect of stimulus on membrane conductance vs control oocytes,human VR3 A+B+; 10 uM,NE: n = 3
same,Effect of stimulus on membrane conductance vs control oocytes,human VR3 A+B−; [3],NE: n = 3 (n = 3 0.4 ng)
CCCCCCCC/C=C\CCCCCCCC(=O)NCc1ccc(O)c(OC)c1 [Olvanil],Effect of stimulus on membrane conductance vs control oocytes,human VR3 A−B−; 10 uM,NE: n = 3
same,Effect of stimulus on membrane conductance vs control oocytes,human VR3 A+B+; 10 uM,NE: n = 3
same,Effect of stimulus on membrane conductance vs control oocytes,human VR3 A+B−; [3],NE: n = 3 (n = 1 0.4 ng)
CCCCC[C@H](O)CC(=O)CCc1ccc(O)c(OC)c1 [Gingerol],Effect of stimulus on membrane conductance vs control oocytes,human VR3 A−B−; 10 uM,NE: n = 3
same,Effect of stimulus on membrane conductance vs control oocytes,human VR3 A+B+; 10 uM,NE: n = 3
same,Effect of stimulus on membrane conductance vs control oocytes,human VR3 A+B−; [3],NE: n = 3 (n = 1 0.4 ng)
CCCCC/C=C\C/C=C\C/C=C\C/C=C\CCCC(=O)NCCO [Anandamide],Effect of stimulus on membrane conductance vs control oocytes,human VR3 A−B−; 1.15 uM,NE: n = 1
same,Effect of stimulus on membrane conductance vs control oocytes,"human VR3 A+B−; 1.15 uM, VR3 A+B− 0.4 ng injected",NE: n = 3 (0.4 ng
